Measured values from patent US20080051419A1, “AMINE DERIVATIVES USEFUL AS ANTICANCER AGENTS” (PFIZER INC., priority 2006, published 2008).
Like-named read-outs stand apart in the source and are kept apart here.

Target: T1, Akt1 (Homo sapiens, UniProt P31749, S473D)
T1 construct: The version of Akt used in these studies lacks the pleckstrin homology (PH) domain
Assay: Akt1 kinase assay, fluorescence polarization (IMAP)
Type: biochemical
Description: The Akt1 kinase assay is based on the measurement of fluorescence polarization using IMAP technology (Molecular Devices Corporation #R8062). Two microliters of inhibitor compounds diluted to a concentration of 10 millimolar are added to column 2 of a polypropylene 96-well plate containing 98 microliters of 100% DMSO; the wells in columns 3-12 contain 60 microliters of 100% DMSO. The various test compounds are serially diluted 1:3 across the plate by pipetting 30 microliters of compounds into wells containing 60 microliters of 100% DMSO. Column 12 receives DMSO only and is used as a negative control for inhibition. The components of the wells are mixed and 15 microliters of each well are transferred to another 96-well plate already containing 60 microliters of reaction buffer (RB: 10 mM Tris-HCl, pH 7.5, 10 mM MgCl2, 0.1 mM EGTA, 0.01% Triton-X100 (Sigma #X-100), freshly added 1 mM DTT). After mixing, the […] reactions are assembled. First, five microliters of the above compound/reaction buffer mixture is transferred to the bottom of a 96-well black polystyrene reaction plate (Costar, #3694). Next, ten microliters of a solution containing 4 micromolar ATP and 40 nanomolar fluorescent-labeled Crosstide (Tamara-labeled […] peptide) are added. Then, 5 microliters (1.5 nanograms) of Akt protein in RB are added. The version of Akt used in these studies lacks the pleckstrin homology (PH) domain, and contains an aspartic acid residue in place of a serine residue in position 473 within the Akt1 hydrophobic motif. The Akt1 protein contains a polyhistidine tag at the amino terminus and is prephosphorylated on threonine at position 308 in order to activate latent kinase activity. Once the reaction components and inhibitors are assembled, the plates are gently tapped, covered with foil, and then incubated at ambient temperature for 30 minutes. IMAP beads (Molecular Devices) are then added (60 microliters of a 1:400 dilution of beads in RB). Plates are read on a Victor Plate Reader with the following settings: CW lamp filter: 544 nm, emission filter: 615 nm. Control values from wells lacking Akt protein are subtracted from the gross readings, and IC50 values are calculated using XLDA.

[1] = Table 1, concentration bins, read-out: Concentration Range at which exemplary compounds of formula I inhibit Akt kinase activity
[2] = Table 3, read-out: Avg Akt kinase, μM (50% inhibition)
[3] = average Akt kinase activity (IC50), read-out: Avg Akt kinase, μM (50% inhibition)

T1 sequence (P31749 118-480 S473D limits assumed, species assumed): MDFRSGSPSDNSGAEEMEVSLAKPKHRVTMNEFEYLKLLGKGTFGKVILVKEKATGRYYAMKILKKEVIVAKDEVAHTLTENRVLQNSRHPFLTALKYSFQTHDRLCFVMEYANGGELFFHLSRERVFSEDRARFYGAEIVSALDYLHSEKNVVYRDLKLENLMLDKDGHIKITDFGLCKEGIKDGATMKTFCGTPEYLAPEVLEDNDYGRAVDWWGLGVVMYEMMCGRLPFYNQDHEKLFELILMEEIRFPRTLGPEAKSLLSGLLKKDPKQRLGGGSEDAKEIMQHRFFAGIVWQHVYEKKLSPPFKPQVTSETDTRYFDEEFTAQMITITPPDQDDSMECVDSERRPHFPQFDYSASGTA

| Compound | IC50 [1] [µM] | IC50 (read-out: Avg Akt kinase, μM (50% inhibition)) [µM] | IC50 [2] [µM] | IC50 [3] [µM] |
| --- | --- | --- | --- | --- |
| Cc1c[nH]c2ncnc(N3CCC(N)(CN(C)C(=O)c4ccc(Cl)cc4)C3)c12 (stereo not drawn) [Example 196, N-((3-amino-1-(5-methyl-7H-pyrrolo[2,3-d]pyrimidin-4-yl)pyrrolidin-3-yl)methyl)-4-chloro-N-methylbenzamide] | 0.101 to 10 | 0.123 |  |  |
| N#Cc1c[nH]c2ncnc(N3CCC(N)(CNc4cccc(C(F)(F)F)c4F)C3)c12 (stereo not drawn) [Example 40, 4-[3-amino-3-({[2-fluoro-3-(trifluoromethyl)phenyl]amino}-methyl)pyrrolidin-1-yl]-7H-pyrrolo[2,3-d]pyrimidine-5-carbonitrile] | 0.00251 to 0.01 |  | 0.00807 |  |
| Cc1cccc(NC(=O)NCC2(N)CCN(c3ncnc4[nH]cc(C)c34)C2)c1C (stereo not drawn) [Example 75, 1-{[3-amino-1-(5-methyl-7H-pyrrolo[2,3-d]pyrimidin-4-yl)pyrrolidin-3-yl]methyl}-3-(2,3-dimethylphenyl)urea] | 0.101 to 10 |  |  | 0.185 |
| CCN(CC1(N)CCN(c2ncnc3[nH]cc(C)c23)C1)c1ccccc1 (stereo not drawn) [Example 50, 3-{[ethyl(phenyl)amino]methyl}-1-(5-methyl-7H-pyrrolo[2,3-d]pyrimidin-4-yl)pyrrolidin-3-amine] | 0.101 to 10 |  | 0.116 |  |
| N[C@]1(CNC(=O)c2ccc(Cl)cc2)CCN(c2ncnc3[nH]cc(Cl)c23)C1 [Example 70, N—(((S)-3-amino-1-(5-chloro-7H-pyrrolo[2,3-d]pyrimidinechlorobenzamide (70)-4-yl)pyrrolidin-3-yl)methyl)-4] | 0.00251 to 0.01 |  |  | 0.00544 |
| Cc1c[nH]c2ncnc(N3CCC(N)(CNc4cccc(C(F)(F)F)c4F)C3)c12 (stereo not drawn) [Example 3] | 0.00025 to 0.0025 |  | 0.0012 |  |
| Cc1c[nH]c2ncnc(N3CCC(N)(CNS(=O)(=O)c4ccccc4)C3)c12 (stereo not drawn) [Example 77, N-{[3-amino-1-(5-methyl-7H-pyrrolo[2,3-d]pyrimidin-4-yl)pyrrolidin-3-yl]methyl}benzenesulfonamide] | 0.101 to 10 |  |  | 0.177 |
| N#Cc1c[nH]c2ncnc(N3CCC(N)(CNc4ccc(Cl)cc4)C3)c12 (stereo not drawn) [Example 4, 4-{3-amino-3-[(4-chloro-phenylamino)-methyl]-pyrrolidin-1-yl}-7H-pyrrolo[2,3-d]pyrimidine-5-carbonitrile] | 0.0101 to 0.1 |  | 0.041 |  |
| Cc1c[nH]c2ncnc(N3CC[C@](N)(CNC(=O)c4c(F)cccc4Cl)C3)c12 [Example 116] | 0.0101 to 0.1 |  |  | 0.0681 |
| NC1(CNc2cccc(Oc3ccccc3)c2)CCN(c2ncnc3[nH]cc(Cl)c23)C1 (stereo not drawn) [Example 6, 1-(5-Chloro-7H-pyrrolo[2,3-d]pyrimidin-4-yl)-3-[(3-phenoxy-phenylamino)-methyl]-pyrrolidin-3-ylamine] | 0.0101 to 0.1 |  | 0.0134 |  |
| CCc1c[nH]c2ncnc(N3CC[C@](N)(CNC(=O)c4ccc(F)cc4F)C3)c12 [Example 73, N-{[(3S)-3-amino-1-(5-ethyl-7H-pyrrolo[2,3-d]pyrimidin-4-yl)pyrrolidin-3-yl]methyl}-2,4-difluorobenzamide] | 0.00025 to 0.0025 |  |  | 0.000269 |
| 3-{[(4-chlorophenyl)amino]methyl}-1-(1H-pyrrolo[2,3-b]pyridin-4-yl)pyrrolidin-3-amine [Example 17] |  |  | 0.331 |  |
| Cc1c[nH]c2ncnc(N3CC[C@](N)(CNC(=O)c4ccc(F)cc4Cl)C3)c12 [Example 100, N-{[(3S)-3-amino-1-(5-methyl-7H-pyrrolo[2,3-d]pyrimidin-4-yl)pyrrolidin-3-yl]methyl}-2-chloro-4-fluorobenzamide] | 0.00251 to 0.01 |  |  | 0.00972 |
| N#Cc1c[nH]c2ncnc(N3CCC(N)(CNc4cccc5c4CCCC5)C3)c12 (stereo not drawn) [Example 38, 4-{3-amino-3-[(5,6,7,8-tetrahydronaphthalen-1-ylamino)methyl]pyrrolidin-1-yl}-7H-pyrrolo[2,3-d]pyrimidine-5-carbonitrile] | 0.00251 to 0.01 |  | 0.00371 |  |
